Assay: xn = mol fraction of the nth substance listed
Conditions: Fluid (supercritical or subcritical phases)

CCCCC(COC(=O)C(=O)OCC)OC(=O)C(=O)OCC (stereo not given) [1,2-hexanediol bis-(ethoxycarbonylformate)] + O=C=O
Conditions	mass density [kg/m3]
313 K, x1 = 0.00125	556.08
313 K, x1 = 0.00238	584.52
313 K, x1 = 0.00345	606.4
313 K, x1 = 0.00447	624.05
313 K, x1 = 0.00552	631.74
333 K, x1 = 0.00179	389.65
333 K, x1 = 0.00331	420.8
333 K, x1 = 0.00471	443.89
333 K, x1 = 0.00608	458.89
333 K, x1 = 0.00748	466.23
353 K, x1 = 0.00251	277.12
353 K, x1 = 0.00456	305.62
353 K, x1 = 0.00632	331.22
353 K, x1 = 0.00821	339.94
353 K, x1 = 0.00988	353.15

CCCCC(COC(=O)C(=O)OC)OC(=O)C(=O)OC (stereo not given) [1,2-hexanediol bis-(methoxycarbonylformate)] + O=C=O
Conditions	mass density [kg/m3]
313 K, x1 = 0.00173	436.05
313 K, x1 = 0.00309	492.75
313 K, x1 = 0.00442	517.19
313 K, x1 = 0.00567	538.22
313 K, x1 = 0.00686	556.08
333 K, x1 = 0.00241	316.53
333 K, x1 = 0.00416	366.67
333 K, x1 = 0.00576	397.42
333 K, x1 = 0.00739	413.01
333 K, x1 = 0.00874	436.26
353 K, x1 = 0.00318	239.41
353 K, x1 = 0.00558	273.18
353 K, x1 = 0.00729	314.05
353 K, x1 = 0.00921	331.22
353 K, x1 = 0.01094	348.73

CCCCC(O)CO (stereo not given) [1,2-hexanediol] + O=C=O
Conditions	mass density [kg/m3]
313 K, x1 = 0.00073	677.07
313 K, x1 = 0.00136	730.15
313 K, x1 = 0.00197	756.91
313 K, x1 = 0.00256	778.16
313 K, x1 = 0.0031	802.54
333 K, x1 = 0.00091	547.92
333 K, x1 = 0.00169	589.92
333 K, x1 = 0.00241	619.81
333 K, x1 = 0.00312	638.84
333 K, x1 = 0.0038	655.62
353 K, x1 = 0.00109	457.46
353 K, x1 = 0.00196	506.95
353 K, x1 = 0.00281	530.61
353 K, x1 = 0.00363	549.26
353 K, x1 = 0.00442	563.72

Reference: the NIST ThermoML archive (doi:10.1016/j.jct.2012.08.020)
